Data: patent US20200024278A1, “COMPOSITION COMPRISING ANTIBIOTIC COMPOUND AND AN HETEROCYCLIC COMPOUND AND THEIR USE IN PREVENTING OR TREATING BACTERIAL INFECTIONS” (MUTABILIS, priority 2016, published 2020)
Where a name gives a salt, the structure may show the parent alone.

Experiments:
Assay in all cases: MIC, broth microdilution (CLSI), substance alone or ATB combined with compound at 4 or 8 μg/mL
Type in all cases: cell-based, A. baumannii
Details in all cases: Acinetobacter baumannii, substance alone, read-out: MIC
[1] = test system: ABA UFR161
Procedure, shortened: (§1)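 Per CLSI-M7-A7, MICs are determined in cation-adjusted Mueller-Hinton broth with a final inoculum of 5·10^5 CFU/mL. Plates incubate 16-20 h at 35° C in air and are read by eye. Fosfomycin assays carry 25 μg/ml glucose-6-phosphate.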

[2] = test system: ABA UFR151
Procedure, shortened: as §1

[3] = test system: ABA UFR152
Procedure, shortened: as §1

[4] = test system: ABA UFR154
Procedure, shortened: as §1

[5] = test system: ABA UFR159
Procedure, shortened: as §1

[6] = test system: ABA UFR155
Procedure, shortened: as §1

[7] = test system: ABA UFR158
Procedure, shortened: as §1

[8] = test system: ABA 107292
Procedure, shortened: as §1

[9] = test system: ABA UFR157
Procedure, shortened: as §1

[10] = test system: ABA UFR153
Procedure, shortened: as §1

[11] = test system: ABA UFR156
Procedure, shortened: as §1

- MIC [1]: > 32 µg/mL
- MIC [2]: > 32 µg/mL
- MIC [3]: 32 µg/mL
- MIC [4]: > 32 µg/mL
- MIC [5]: > 32 µg/mL
- MIC [6]: > 32 µg/mL
- MIC [7]: > 32 µg/mL
- MIC [8]: > 32 µg/mL
- MIC [9]: > 32 µg/mL
- MIC [10]: 32 µg/mL
- MIC [11]: > 32 µg/mL
SMILES: NCCCn1c2c(sc1=O)C1CN(C2)C(=O)N1OS(=O)(=O)O (centres unmarked) [Example 10, [5-(3-aminopropyl)-4,9-dioxo-3-thia-5,8,10-triaza-tricyclo[6.2.1.0^2,6]undec-2(6)-en-10-yl] hydrogen sulfate]
